Test in all cases: NCI anticancer screen, dose series, 48 h
Experiment [1] has as its system HCT-116 colon.
Experiment [2] has as its system RPMI-8226 leukemia.
The subject of experiment [3] is SK-MEL-2 melanoma.
Experiment [4] has as its system SK-MEL-5 melanoma.
The subject of experiment [5] is SN12C renal.
Experiment [6] has as its system SNB-75 CNS.
Experiment [7] concerns U251 CNS.
Experiment [8] deals with UO-31 renal.
Experiment [9] relates to SK-MEL-28 melanoma.
The test system of experiment [10] is BT-549 breast.
For experiment [11], the system named is DU-145 prostate.

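Growth conditions: 96-well plates. Treatment: test compound, 48 hours, 5 concentrations. Analysis: linear interpolation between bracketing concentrations; unreached endpoints set to highest concentration. Here, GI50 denotes the concentration required for 50% inhibition of growth. TGI denotes the concentration required for complete inhibition of growth.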 Where a SMILES comes first, the peptide text is derived from it. [ ]: non-standard residue; d: D form.

In the case of `O=C(O)C1CCCCN1c1ccccc1[N+](=O)[O-]` (stereo not given), the TGI in experiment [1], in experiment [2], in experiment [3], in experiment [4], in experiment [5] and in [6] was greater than 100 µM each time. The TGI in experiment [7] and in experiment [8] was greater than 100 µM in each case.
For `O=C(N/N=C/c1cc(Br)cc(Br)c1[O-])c1ccccc1O.O=C(N/N=C/c1cc(Br)cc(Br)c1[O-])c1ccccc1O.[Co+2]`, the TGI came out at 17.7 µM in experiment [1]; 5.4 µM in [3]; 14.5 µM in experiment [9]; 2.96 µM in experiment [4]; 15.3 µM in experiment [6]; 9.38 µM in experiment [7]. The TGI in [8] is 10.6 µM.
As to `CC[C@@]1(O)C(=O)OCc2c1cc1n(c2=O)Cc2c-1nc1ccccc1c2/C=N/NC(=O)c1ccc(N)cc1`, the TGI in experiment [10] was greater than 100 µM; in [11], 16.8 µM; in experiment [1], 12 µM; in [2], greater than 100 µM; in [3], greater than 100 µM; in experiment [9] it was greater than 100 µM. The TGI in experiment [4] came to 1.1 µM; in experiment [5] it was 16.2 µM; in experiment [7], 7.63 µM; in experiment [8] it was 25.6 µM.
Consider `ClCCCCCc1c2nc(c(CCCCCCl)c3ccc([nH]3)c(CCCCCCl)c3ccc([nH]3)c(CCCCCCl)c3nc1C=C3)C=C2`, for which the TGI in experiment [10], in [1], in [2], in experiment [3], in experiment [9] and in experiment [4] was greater than 100 µM each time. Further, the TGI in experiment [5], in [6], in experiment [7] and in experiment [8] was greater than 100 µM throughout.
Turning to `N#Cc1c(O)c(/C=N/c2ncccn2)c(=O)n2c1[nH]c1ccccc12`, the TGI in experiment [10], in experiment [1], in [2], in [3], in experiment [9] and in [4] was greater than 100 µM throughout. Also, the TGI in [5], in experiment [6], in [7] and in experiment [8] was greater than 100 µM each time.
In the case of `CN1CC2CN(Cc3ccccc3)CCN2c2cccnc21` (stereo not given), the TGI in experiment [10] was greater than 100 µM; in experiment [1] it was 37.7 µM; in experiment [2], greater than 100 µM; in experiment [3] it was greater than 100 µM; in [4], greater than 100 µM; in experiment [6], greater than 100 µM. In addition, the TGI in experiment [7] and in experiment [8] was greater than 100 µM each time.
As to `CCCCCCCCCCCCCCCCCCOCC(O)COP(=O)(O)OCC1OC(n2ccc(N)nc2=O)C(O)C1O` (stereo not given), the TGI was greater than 100 µM in experiment [11]; greater than 100 µM in [1]; 52.9 µM in experiment [2]; greater than 100 µM in [9]; greater than 100 µM in experiment [4]; greater than 100 µM in experiment [5]. Further, the values for the TGI in experiment [6] and in [7] were 28.7 µM and 30.2 µM, respectively.
In the case of `NS(=O)(=O)c1ccc(/C=C/c2ccc(O)cc2)cc1`, the TGI is greater than 100 µM in [11]; 85.6 µM in [1]; 39.3 µM in experiment [2]; 60.3 µM in [3]; 78.2 µM in [9]; 29 µM in experiment [4]. For the same compound, the TGI in [5] was greater than 100 µM; in experiment [6] it was 78.6 µM; in experiment [7], greater than 100 µM; in experiment [8], 36.2 µM. Also, the results for the GI50 in [2] and in [7] were 7.09 µM and 15 µM, respectively.
As to `CC(C)C[C@H](NC(=O)[C@H](CC(C)C)NC(=O)[C@@H](Cc1c[nH]c2ccccc12)NC(=O)[C@H](Cc1ccccc1)NC(=O)[C@@H](Cc1c[nH]c2ccccc12)NC(=O)[C@H](CCC(N)=O)NC(=O)[C@H](CCC(N)=O)NC(=O)[C@H]1CCCN1C(=O)[C@@H](N)CCCCN)C(N)=O` (H-K[dP]QQ[dW]F[dW]LL-NH2), the TGI in experiment [1], in experiment [2], in experiment [3], in [9], in experiment [4] and in experiment [5] was greater than 100 µM each time. The TGI in experiment [6], in experiment [7] and in experiment [8] was greater than 100 µM each time.
On to `Cc1ccc(Nc2nc3c(=O)n(C)c(=O)n(C)c3nc2Nc2ccc(C)cc2)cc1`, for which the TGI was greater than 100 µM in experiment [11]; 22.1 µM in experiment [1]; greater than 100 µM in [2]; 33.5 µM in [3]; 30.8 µM in experiment [9]; 31 µM in experiment [4]. The TGI in [5] came out at 30.5 µM; in experiment [6], 35.2 µM; in experiment [7], 29.9 µM; in [8], 24.4 µM.
As to `c1ccc(CSC2(SCc3ccccc3)CCCCC2)cc1`, the TGI in experiment [11], in experiment [1], in experiment [2], in experiment [3], in experiment [9] and in experiment [4] was greater than 10 µM in each case. Besides, the TGI in [5], in experiment [6], in experiment [7] and in experiment [8] was greater than 10 µM in each case.
As for `O=C(c1ccc(Cl)cc1)N(C(=S)OCCOc1ccccc1)c1ccccc1`, the TGI in [10] is 52.3 µM; in [11], 31.7 µM; in experiment [1] it was 30.9 µM; in [2], 44.1 µM; in [3] it was 45.7 µM; in experiment [9], 34.9 µM. For the same compound, the TGI in experiment [5] was 39.3 µM; in experiment [7], 29.7 µM; in experiment [8], 3.12 µM.
As for `Cc1ccc(N(C)S(=O)(=O)c2ccccc2[N+](=O)[O-])cc1`, the TGI in experiment [10] is 61.7 µM; in experiment [11] it was greater than 100 µM; in experiment [1] it was greater than 100 µM; in [2], greater than 100 µM; in experiment [3], greater than 100 µM; in experiment [9] it was greater than 100 µM. Also, the TGI in [5], in experiment [7] and in experiment [8] was greater than 100 µM in each case.

The record behind these values is PubChem BioAssay (NCI).
